ChEMBL document CHEMBL5465560, “Selectivity Literature for EUbOPEN Chemogenomic Library” (2024)

Tests used:
[1] = biological target: Tyrosine-protein kinase Fer (Homo sapiens) (UniProt P16591); experiment: Selectivity interaction (KinaseProfiler screening (Millipore)) EUB0000601a FER; conditions: at 3 µM
[2] = biological target: Serine/threonine-protein kinase PAK 2 (Homo sapiens) (UniProt Q13177); experiment: Selectivity interaction (Kinase screening (Nanosyn)) EUB0000604a PAK2
[3] = biological target: RAC-gamma serine/threonine-protein kinase (Homo sapiens, UniProt Q9Y243); experiment: Selectivity interaction (KinomeScan (DiscoverX)) EUB0001049a AKT3; conditions: at 1 µM
[4] = biological target: Receptor-type tyrosine-protein kinase FLT3 (Homo sapiens) (UniProt P36888); experiment: (§1) Selectivity interaction (Kinase panel (Z-LYTE Assay)) EUB0001632a FLT3; conditions: at 10 µM
[5] = system: T1, Receptor-type tyrosine-protein kinase FLT3 (Homo sapiens), P36888 [D835Y]; experiment: as §1; conditions: at 10 µM
T1 sequence (whole entry): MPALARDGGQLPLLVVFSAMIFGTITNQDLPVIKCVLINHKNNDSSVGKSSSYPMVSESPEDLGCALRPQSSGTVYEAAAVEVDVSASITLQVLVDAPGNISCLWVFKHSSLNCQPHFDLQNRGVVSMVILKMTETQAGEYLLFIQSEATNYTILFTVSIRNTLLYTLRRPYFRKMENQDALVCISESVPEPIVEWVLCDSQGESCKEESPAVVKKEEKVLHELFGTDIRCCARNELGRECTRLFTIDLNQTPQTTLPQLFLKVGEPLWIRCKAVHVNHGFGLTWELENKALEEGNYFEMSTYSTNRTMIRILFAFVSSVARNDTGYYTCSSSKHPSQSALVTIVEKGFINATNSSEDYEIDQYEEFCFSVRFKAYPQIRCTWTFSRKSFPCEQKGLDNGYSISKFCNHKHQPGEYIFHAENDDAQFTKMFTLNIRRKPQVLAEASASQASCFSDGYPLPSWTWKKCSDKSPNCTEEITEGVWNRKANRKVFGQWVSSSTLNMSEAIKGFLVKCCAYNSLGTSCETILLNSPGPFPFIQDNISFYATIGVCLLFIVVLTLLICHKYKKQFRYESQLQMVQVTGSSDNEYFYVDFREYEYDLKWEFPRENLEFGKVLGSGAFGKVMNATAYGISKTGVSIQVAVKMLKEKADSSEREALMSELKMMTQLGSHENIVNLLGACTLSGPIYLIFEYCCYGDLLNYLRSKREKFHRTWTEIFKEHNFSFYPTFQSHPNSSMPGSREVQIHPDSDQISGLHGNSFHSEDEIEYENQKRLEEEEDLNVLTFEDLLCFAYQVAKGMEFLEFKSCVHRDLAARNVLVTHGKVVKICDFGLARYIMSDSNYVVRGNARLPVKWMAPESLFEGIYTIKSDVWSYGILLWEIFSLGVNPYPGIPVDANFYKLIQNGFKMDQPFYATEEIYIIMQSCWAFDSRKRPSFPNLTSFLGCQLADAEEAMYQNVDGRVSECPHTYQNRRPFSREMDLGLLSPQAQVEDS

[6] = biological target: Macrophage colony-stimulating factor 1 receptor (Homo sapiens) (UniProt P07333); experiment: Selectivity interaction (KinomeScan (DiscoverX)) EUB0000229b CSF1R; conditions: at 10 µM
[7] = biological target: T2, Scaffold protein ILK (Homo sapiens) (UniProt Q13418); experiment: Selectivity interaction (ActivX KiNativ screen (ex vivo kinase selectivity in human PBMCs)) EUB0001619a ILK; type: cell-based; conditions: PBMC, at 1 µM
T2 sequence (whole entry): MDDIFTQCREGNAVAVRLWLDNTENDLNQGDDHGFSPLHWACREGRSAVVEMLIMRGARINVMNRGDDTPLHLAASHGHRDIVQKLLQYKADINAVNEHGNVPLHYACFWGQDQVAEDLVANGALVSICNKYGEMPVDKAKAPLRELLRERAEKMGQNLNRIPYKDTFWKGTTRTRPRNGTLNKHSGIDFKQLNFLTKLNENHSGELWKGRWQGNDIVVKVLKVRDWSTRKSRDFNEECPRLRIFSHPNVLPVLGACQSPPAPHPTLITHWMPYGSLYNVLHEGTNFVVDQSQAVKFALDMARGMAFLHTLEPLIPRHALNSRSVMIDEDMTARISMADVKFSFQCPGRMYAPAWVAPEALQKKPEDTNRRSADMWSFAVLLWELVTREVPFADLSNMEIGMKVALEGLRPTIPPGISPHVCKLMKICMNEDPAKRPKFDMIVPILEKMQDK

[8] = biological target: Serine/threonine-protein kinase WNK1 (Homo sapiens) (UniProt Q9H4A3); experiment: Selectivity interaction (Kinase panel (KiNativ target engagement assay in Jurkat cells)) EUB0001635a WNK1; type: cell-based; conditions: at 1 µM
[9] = biological target: T3, Serine/threonine-protein kinase Nek9 (Homo sapiens) (UniProt Q8TD19); experiment: Selectivity interaction (KinomeScan (DiscoverX)) EUB0000666a NEK9; conditions: at 10 µM
T3 sequence (whole entry): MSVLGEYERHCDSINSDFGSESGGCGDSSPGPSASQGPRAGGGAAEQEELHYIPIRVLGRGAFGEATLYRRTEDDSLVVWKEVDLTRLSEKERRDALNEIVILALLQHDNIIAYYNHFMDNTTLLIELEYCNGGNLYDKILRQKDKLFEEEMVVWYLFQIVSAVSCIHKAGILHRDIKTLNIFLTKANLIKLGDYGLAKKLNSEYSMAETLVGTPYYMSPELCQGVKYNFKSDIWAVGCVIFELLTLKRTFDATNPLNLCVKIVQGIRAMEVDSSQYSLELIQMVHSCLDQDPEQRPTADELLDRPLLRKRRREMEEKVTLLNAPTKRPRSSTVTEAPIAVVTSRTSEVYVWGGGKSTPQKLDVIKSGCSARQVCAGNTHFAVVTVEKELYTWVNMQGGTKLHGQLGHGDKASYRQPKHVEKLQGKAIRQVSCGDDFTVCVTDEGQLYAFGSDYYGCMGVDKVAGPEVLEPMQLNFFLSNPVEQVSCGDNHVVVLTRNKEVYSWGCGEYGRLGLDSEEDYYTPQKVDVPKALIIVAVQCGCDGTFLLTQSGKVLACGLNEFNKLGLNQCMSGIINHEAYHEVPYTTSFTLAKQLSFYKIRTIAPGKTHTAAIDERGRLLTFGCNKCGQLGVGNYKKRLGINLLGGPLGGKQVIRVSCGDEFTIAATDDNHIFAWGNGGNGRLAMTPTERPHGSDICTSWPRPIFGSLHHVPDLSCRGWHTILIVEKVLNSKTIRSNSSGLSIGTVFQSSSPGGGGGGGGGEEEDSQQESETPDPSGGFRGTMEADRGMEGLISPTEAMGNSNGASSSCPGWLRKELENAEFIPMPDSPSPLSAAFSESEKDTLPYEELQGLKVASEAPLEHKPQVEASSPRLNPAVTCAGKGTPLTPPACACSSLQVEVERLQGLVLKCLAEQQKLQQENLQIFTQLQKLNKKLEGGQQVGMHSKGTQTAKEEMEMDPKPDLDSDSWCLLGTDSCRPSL

Serine/threonine-protein kinase WNK1 (Homo sapiens), sequence (Q9H4A3 whole entry, looked up): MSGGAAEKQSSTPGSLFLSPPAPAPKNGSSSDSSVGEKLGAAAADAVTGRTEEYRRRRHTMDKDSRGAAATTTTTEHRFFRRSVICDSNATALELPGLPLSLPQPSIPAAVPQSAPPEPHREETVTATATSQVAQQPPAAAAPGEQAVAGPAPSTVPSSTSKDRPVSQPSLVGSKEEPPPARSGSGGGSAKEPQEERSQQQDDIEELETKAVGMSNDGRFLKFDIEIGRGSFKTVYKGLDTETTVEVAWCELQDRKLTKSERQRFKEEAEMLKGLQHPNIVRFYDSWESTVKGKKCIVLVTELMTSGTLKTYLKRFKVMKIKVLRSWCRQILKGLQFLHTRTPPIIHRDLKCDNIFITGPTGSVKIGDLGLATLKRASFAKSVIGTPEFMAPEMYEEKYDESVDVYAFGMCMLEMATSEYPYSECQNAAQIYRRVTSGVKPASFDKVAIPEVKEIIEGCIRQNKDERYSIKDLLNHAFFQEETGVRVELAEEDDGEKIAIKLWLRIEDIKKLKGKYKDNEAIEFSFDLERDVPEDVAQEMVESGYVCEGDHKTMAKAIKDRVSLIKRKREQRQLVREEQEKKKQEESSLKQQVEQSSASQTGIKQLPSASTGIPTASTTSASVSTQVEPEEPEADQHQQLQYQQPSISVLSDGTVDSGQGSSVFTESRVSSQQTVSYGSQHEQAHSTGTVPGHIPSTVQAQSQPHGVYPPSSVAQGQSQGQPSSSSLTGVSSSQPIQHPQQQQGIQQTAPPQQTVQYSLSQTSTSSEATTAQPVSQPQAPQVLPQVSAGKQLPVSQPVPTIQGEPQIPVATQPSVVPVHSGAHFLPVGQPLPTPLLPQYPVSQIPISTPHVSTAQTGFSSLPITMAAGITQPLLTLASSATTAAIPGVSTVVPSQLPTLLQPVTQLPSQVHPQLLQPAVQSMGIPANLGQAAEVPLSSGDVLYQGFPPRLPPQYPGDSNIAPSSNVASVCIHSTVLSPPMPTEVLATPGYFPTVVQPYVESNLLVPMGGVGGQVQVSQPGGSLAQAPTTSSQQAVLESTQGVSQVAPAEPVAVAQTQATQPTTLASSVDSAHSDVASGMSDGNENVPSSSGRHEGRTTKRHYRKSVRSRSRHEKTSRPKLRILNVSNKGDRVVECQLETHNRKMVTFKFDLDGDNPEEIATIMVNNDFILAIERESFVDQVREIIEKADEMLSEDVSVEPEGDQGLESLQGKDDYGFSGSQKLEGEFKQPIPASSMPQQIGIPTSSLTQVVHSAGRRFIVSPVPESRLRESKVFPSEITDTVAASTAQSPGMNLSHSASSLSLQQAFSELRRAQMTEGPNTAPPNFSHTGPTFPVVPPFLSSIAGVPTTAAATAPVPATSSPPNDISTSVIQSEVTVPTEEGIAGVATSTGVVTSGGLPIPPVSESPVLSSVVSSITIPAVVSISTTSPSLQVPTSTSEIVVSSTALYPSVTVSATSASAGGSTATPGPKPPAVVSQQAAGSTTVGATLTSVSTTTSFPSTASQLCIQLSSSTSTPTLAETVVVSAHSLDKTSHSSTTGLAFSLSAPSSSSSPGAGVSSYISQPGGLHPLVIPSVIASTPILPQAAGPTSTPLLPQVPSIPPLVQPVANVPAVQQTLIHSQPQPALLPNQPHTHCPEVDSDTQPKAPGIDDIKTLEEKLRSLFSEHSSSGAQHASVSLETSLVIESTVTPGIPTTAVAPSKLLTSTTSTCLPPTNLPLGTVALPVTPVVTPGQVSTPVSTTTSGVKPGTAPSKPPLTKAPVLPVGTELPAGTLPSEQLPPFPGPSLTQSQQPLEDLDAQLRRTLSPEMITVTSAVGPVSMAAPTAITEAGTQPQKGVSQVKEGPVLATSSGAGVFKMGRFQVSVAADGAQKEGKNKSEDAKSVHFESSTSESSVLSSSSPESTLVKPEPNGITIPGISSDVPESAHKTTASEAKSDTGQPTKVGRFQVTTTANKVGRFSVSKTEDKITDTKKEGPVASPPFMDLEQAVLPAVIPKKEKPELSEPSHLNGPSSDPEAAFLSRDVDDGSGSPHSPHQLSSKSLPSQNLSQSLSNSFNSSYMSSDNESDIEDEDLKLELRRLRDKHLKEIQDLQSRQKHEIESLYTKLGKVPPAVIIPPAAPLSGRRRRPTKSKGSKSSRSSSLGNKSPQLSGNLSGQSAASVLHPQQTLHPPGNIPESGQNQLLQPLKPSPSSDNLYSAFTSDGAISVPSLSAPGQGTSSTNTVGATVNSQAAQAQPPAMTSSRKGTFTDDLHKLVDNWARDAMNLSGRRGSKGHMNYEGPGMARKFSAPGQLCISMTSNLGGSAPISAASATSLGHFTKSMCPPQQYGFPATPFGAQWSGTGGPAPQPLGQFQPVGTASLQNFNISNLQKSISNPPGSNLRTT
Serine/threonine-protein kinase PAK 2 (Homo sapiens), sequence (Q13177 whole entry): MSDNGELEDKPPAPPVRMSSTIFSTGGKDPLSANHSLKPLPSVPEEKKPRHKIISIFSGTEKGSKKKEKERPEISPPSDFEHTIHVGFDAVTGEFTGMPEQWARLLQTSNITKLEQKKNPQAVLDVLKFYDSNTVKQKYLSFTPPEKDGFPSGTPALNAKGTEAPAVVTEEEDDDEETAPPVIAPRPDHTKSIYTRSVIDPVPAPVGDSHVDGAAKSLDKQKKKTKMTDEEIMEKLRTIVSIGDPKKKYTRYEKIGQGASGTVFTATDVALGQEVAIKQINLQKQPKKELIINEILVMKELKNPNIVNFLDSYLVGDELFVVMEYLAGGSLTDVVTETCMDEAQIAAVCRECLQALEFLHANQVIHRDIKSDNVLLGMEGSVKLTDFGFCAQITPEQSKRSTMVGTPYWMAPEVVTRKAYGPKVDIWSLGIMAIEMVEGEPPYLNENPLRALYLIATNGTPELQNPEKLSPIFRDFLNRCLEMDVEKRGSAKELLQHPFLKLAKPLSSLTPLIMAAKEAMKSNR
Tyrosine-protein kinase Fer (Homo sapiens), sequence (P16591 whole entry, looked up): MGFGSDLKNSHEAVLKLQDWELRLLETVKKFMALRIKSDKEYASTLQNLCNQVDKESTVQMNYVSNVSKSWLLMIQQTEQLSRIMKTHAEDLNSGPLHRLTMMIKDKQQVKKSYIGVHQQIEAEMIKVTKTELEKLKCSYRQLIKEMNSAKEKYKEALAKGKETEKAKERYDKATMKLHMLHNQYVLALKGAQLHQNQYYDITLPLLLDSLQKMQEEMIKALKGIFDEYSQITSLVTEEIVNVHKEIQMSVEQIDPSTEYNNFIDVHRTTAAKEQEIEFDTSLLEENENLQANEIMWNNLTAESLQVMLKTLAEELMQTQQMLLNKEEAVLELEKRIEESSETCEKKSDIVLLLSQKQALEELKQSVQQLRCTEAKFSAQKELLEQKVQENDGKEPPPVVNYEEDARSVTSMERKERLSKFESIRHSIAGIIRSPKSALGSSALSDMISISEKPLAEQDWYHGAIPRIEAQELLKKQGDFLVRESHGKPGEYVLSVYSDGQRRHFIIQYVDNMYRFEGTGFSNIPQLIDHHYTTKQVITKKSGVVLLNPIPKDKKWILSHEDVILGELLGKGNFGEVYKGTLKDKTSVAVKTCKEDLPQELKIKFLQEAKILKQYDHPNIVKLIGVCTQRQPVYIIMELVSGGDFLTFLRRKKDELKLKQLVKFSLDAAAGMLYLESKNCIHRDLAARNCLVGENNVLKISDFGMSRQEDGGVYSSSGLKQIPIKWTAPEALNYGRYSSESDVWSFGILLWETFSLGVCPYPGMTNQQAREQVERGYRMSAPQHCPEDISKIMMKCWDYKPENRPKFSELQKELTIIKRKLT
RAC-gamma serine/threonine-protein kinase, sequence (Q9Y243 whole entry): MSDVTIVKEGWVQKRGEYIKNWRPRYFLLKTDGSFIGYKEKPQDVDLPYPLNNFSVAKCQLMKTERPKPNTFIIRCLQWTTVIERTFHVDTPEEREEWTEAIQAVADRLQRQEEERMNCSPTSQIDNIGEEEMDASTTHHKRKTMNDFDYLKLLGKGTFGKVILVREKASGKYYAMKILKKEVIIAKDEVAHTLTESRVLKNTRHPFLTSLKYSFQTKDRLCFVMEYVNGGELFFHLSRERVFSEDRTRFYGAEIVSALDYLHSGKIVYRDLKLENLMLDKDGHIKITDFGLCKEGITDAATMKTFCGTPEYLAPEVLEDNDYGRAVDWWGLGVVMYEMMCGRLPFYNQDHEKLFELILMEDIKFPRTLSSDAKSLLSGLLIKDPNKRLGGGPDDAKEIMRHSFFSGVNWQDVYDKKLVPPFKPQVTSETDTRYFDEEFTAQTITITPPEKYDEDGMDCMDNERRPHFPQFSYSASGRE

## CCc1cc(Nc2nccc(-c3c(-c4ccc(OC)c(C(=O)Nc5c(F)cccc5F)c4)nc4ccccn34)n2)c(OC)cc1N1CCC(N2CCN(S(C)(=O)=O)CC2)CC1
[1]
  % of inhibition: 93%

## Cc1cnc(Nc2ccc(F)cc2Cl)nc1-c1c[nH]c(C(=O)N[C@H](CO)c2cccc(Cl)c2)c1
[2]
  % of inhibition: 0%

## COc1cc(Nc2nc(C)cc(-c3cnn4nc(OC)ccc34)n2)cc(C(F)(F)F)c1
[3]
  % of control: 96%

## Cn1cc(-n2cnc3c(NCc4nc5cc(Cl)c(Cl)cc5[nH]4)nc(N4CCOCC4)nc32)cn1
[4]
  % of control: 34.1%
[5]
  % of control: 33.4%

## COc1cc(N(C)c2ccnc3ccc(C(F)(F)F)cc23)cc(OC)c1OC
[6]
  % binding: 91%

## N#Cc1cccc(-c2c[nH]c3ncnc(N4CCOCC4)c23)c1
[7]
  % of inhibition: -32%

## C=CC(=O)Nc1ccc(C(=O)Nc2[nH]nc3c2CN(C(=O)N[C@H](CN(C)C)c2ccccc2)C3(C)C)cc1
[8]; Selectivity number of off-targets 0.0, Selectivity number of targets 233.0, Source Knowledge https://www.sciencedirect.com/science/article/pii/S2451945619300674?via%3Dihub
  % of engagement: -16.3%
[8]
  % of engagement: -12.9%

## O=C(NOC[C@H](O)CO)c1ccc(F)c(F)c1Nc1ccc(I)cc1F
[9]
  % of control: 82%
